The values that follow come from patent publication US8198273B2, “Compounds and methods for kinase modulation, and indications therefor” (Plexxikon Inc., priority 2009, dated 2012).

Data set [1] has as its system COLO205 colon adenocarcinoma cells (B-Raf V600E). The data set is described as follows: COLO205 cell growth inhibition (ATPlite). Type of data set: cell-based. The following applies: Homo sapiens, COLO 205, 72 h; COLO205, 3 days incubation. In a few lines: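 Cells plated overnight, then exposed 3 days at 37° C to 8-point 1:3 compound dilutions topping at 10 μM final. Viability read as ATPlite luminescence, proportional to cell number; IC50 from luminescence versus concentration.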

A short description of data set [2]: Relative solubility by turbidity in aqueous buffers of varying pH. The conditions noted are these: for turbidity threshold (L, M, H) 7.4: HEPES pH 7.4; for turbidity threshold (L, M, H) 4.5: SIF pH 4.5; for turbidity threshold (L, M, H) 6.8: SIF pH 6.8; for turbidity threshold (L, M, H) 1.4: buffer pH 1.4 (SGF). Type of data set: physicochemical. In a few lines: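 Turbidity endpoint: concentration where optical density at 490, 535 and 650 nm exceeds 0.01, three-wavelength average used. Buffers at pH 1.5, 4.5, 6.8 and 7.4; DMSO serial dilutions of 25 mM stock spiked 1 μL into 99 μL buffer. Low <31.3, moderate 31.3–250, high >250 μM.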

The target in a further data set is CYP2C9 (Homo sapiens, UniProt P11712). The data set is described as follows: CYP2C9 inhibition (fluorescent substrate). Type of data set: in vitro ADME. The conditions noted are these: CYP2C9, MFC substrate; read-out: Cyp IC50 2C9. In short, it runs like this: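 Human CYP activity was followed by the fluorescence of the metabolized product of a known substrate, which falls as metabolism is inhibited. Compounds from 100 mM DMSO stocks were serially diluted 1:1 over 10 points in co-factor mix and preincubated 10 min at 37 °C. IC50 was fitted from signal versus concentration.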
CYP2C9, sequence (P11712 whole entry): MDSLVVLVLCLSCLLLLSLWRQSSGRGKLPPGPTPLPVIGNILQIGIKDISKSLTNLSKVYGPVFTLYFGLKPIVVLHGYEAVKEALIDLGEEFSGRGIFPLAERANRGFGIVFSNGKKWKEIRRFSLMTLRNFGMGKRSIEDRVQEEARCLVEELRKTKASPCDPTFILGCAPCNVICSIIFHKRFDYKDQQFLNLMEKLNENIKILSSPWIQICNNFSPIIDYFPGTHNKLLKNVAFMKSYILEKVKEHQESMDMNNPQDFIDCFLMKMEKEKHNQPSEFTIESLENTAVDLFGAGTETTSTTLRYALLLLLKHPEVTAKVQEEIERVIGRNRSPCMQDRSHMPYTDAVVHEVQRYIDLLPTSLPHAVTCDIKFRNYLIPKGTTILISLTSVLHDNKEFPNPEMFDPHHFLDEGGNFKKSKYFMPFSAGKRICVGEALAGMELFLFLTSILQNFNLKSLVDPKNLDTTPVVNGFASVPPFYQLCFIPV

Turning to `CCCS(=O)(=O)Nc1ccc(F)c(C(=O)c2c[nH]c3ncc(C#CCOC)cc23)c1F` [P-2239, Propane-1-sulfonic acid {2,4-difluoro-3-[5-(3-methoxy-prop-1-ynyl)-1H-pyrrolo[2,3-b]pyridine-3-carbonyl]-phenyl}-amide], in data set [1], the IC50 is under 1 µM. Besides, in data set [2], the “turbidity threshold (L, M, H) 7.4” value is reported as “M (moderate solubility if the threshold concentration is 31.3 μM to 250 μM)”; the “turbidity threshold (L, M, H) 4.5” value is recorded as “M (moderate solubility if the threshold concentration is 31.3 μM to 250 μM)”; the “turbidity threshold (L, M, H) 6.8” value is recorded as “L (low solubility if the threshold concentration is <31.3 04)”; the “turbidity threshold (L, M, H) 1.4” value is recorded as “L (low solubility if the threshold concentration is <31.3 04)”. Further, at CYP2C9, the IC50 lay in the range of 5 to 10 µM.
`O=C(c1c(F)ccc(NS(=O)(=O)c2cc(F)ccc2F)c1F)c1c[nH]c2ncc(Cl)cc12` [P-2002, N-[3-(5-Chloro-1H-pyrrolo[2,3-b]pyridine-3-carbonyl)-2,4-difluoro-phenyl]-2,5-difluoro-benzenesulfonamide] showed an IC50 in data set [1] of under 1 µM. Moreover, in data set [2], the “turbidity threshold (L, M, H) 7.4” value was “M (moderate solubility if the threshold concentration is 31.3 μM to 250 μM)”; the “turbidity threshold (L, M, H) 4.5” value is “L (low solubility if the threshold concentration is <31.3 04)”; the “turbidity threshold (L, M, H) 6.8” value is “M (moderate solubility if the threshold concentration is 31.3 μM to 250 μM)”; the “turbidity threshold (L, M, H) 1.4” value is reported as “L (low solubility if the threshold concentration is <31.3 04)”. Besides, the IC50 at CYP2C9 was in the range of 5 to 10 µM.
The compound `COc1ncc(-c2cnc3[nH]cc(C(=O)c4c(F)ccc(NS(=O)(=O)c5c(F)cccc5F)c4F)c3c2)cn1` [P-2043, N-{2,4-Difluoro-3-[5-(2-methoxy-pyrimidin-5-yl)-1H-pyrrolo[2,3-b]pyridine-3-carbonyl]-phenyl}-2,6-difluoro-benzenesulfonamide] registered an IC50 in data set [1] of under 1 µM. Further, in data set [2], the “turbidity threshold (L, M, H) 7.4” value is reported as “M (moderate solubility if the threshold concentration is 31.3 μM to 250 μM)”; the “turbidity threshold (L, M, H) 4.5” value was “L (low solubility if the threshold concentration is <31.3 04)”; the “turbidity threshold (L, M, H) 6.8” value is “L (low solubility if the threshold concentration is <31.3 04)”; the “turbidity threshold (L, M, H) 1.4” value is listed as “L (low solubility if the threshold concentration is <31.3 04)”. Also, on CYP2C9, the IC50 is over 10 µM.
Regarding `O=C(c1c(F)ccc(NS(=O)(=O)c2c(F)cccc2F)c1F)c1c[nH]c2ncc(Cl)cc12` [P-2003, N-[3-(5-Chloro-1H-pyrrolo[2,3-b]pyridine-3-carbonyl)-2,4-difluoro-phenyl]-2,6-difluoro-benzenesulfonamide], the IC50 in data set [1] was under 5 µM. Besides, in data set [2], the “turbidity threshold (L, M, H) 7.4” value was “H (high solubility if the threshold concentration is >250 μM)”; the “turbidity threshold (L, M, H) 4.5” value is “M (moderate solubility if the threshold concentration is 31.3 μM to 250 μM)”; the “turbidity threshold (L, M, H) 6.8” value is reported as “M (moderate solubility if the threshold concentration is 31.3 μM to 250 μM)”; the “turbidity threshold (L, M, H) 1.4” value was “M (moderate solubility if the threshold concentration is 31.3 μM to 250 μM)”. For the same compound, the IC50 on CYP2C9 is over 10 µM.
Compound `Cc1cnc2[nH]cc(C(=O)c3c(F)ccc(NS(=O)(=O)c4cccnc4)c3F)c2c1` [P-2069, Pyridine-3-sulfonic acid [2,4-difluoro-3-(5-methyl-1H-pyrrolo[2,3-b]pyridine-3-carbonyl)-phenyl]-amide] showed an IC50 in data set [1] of under 1 µM. In data set [2], the “turbidity threshold (L, M, H) 7.4” value was “H (high solubility if the threshold concentration is >250 μM)”; the “turbidity threshold (L, M, H) 4.5” value was “M (moderate solubility if the threshold concentration is 31.3 μM to 250 μM)”; the “turbidity threshold (L, M, H) 6.8” value is on record as “M (moderate solubility if the threshold concentration is 31.3 μM to 250 μM)”; the “turbidity threshold (L, M, H) 1.4” value is given as “H (high solubility if the threshold concentration is >250 μM)”. For the same compound, on CYP2C9, the IC50 is under 5 µM.
On to `CCCS(=O)(=O)Nc1ccc(F)c(C(=O)c2c[nH]c3ncc(-c4cnc(N5CCCC5)nc4)cc23)c1F` [P-2219, Propane-1-sulfonic acid {2,4-difluoro-3-[5-(2-pyrrolidin-1-yl-pyrimidin-5-yl)-1H-pyrrolo[2,3-b]pyridine-3-carbonyl]-phenyl}-amide], for which, in data set [1], the IC50 was under 0.1 µM. In addition, in data set [2], the “turbidity threshold (L, M, H) 7.4” value was “L (low solubility if the threshold concentration is <31.3 04)”; the “turbidity threshold (L, M, H) 4.5” value is reported as “L (low solubility if the threshold concentration is <31.3 04)”; the “turbidity threshold (L, M, H) 6.8” value is recorded as “L (low solubility if the threshold concentration is <31.3 04)”; the “turbidity threshold (L, M, H) 1.4” value is on record as “M (moderate solubility if the threshold concentration is 31.3 μM to 250 μM)”. Besides, at CYP2C9, the IC50 is over 10 µM.
`CCCS(=O)(=O)Nc1ccc(F)c(C(=O)c2c[nH]c3ncc(-c4ccc(C)nc4)cc23)c1F` [P-2213, Propane-1-sulfonic acid {2,4-difluoro-3-[5-(6-methyl-pyridin-3-yl)-1H-pyrrolo[2,3-b]pyridine-3-carbonyl]-phenyl}-amide]: the IC50 in data set [1] is under 1 µM. In data set [2], the “turbidity threshold (L, M, H) 7.4” value is reported as “L (low solubility if the threshold concentration is <31.3 04)”; the “turbidity threshold (L, M, H) 4.5” value is given as “M (moderate solubility if the threshold concentration is 31.3 μM to 250 μM)”; the “turbidity threshold (L, M, H) 6.8” value is “L (low solubility if the threshold concentration is <31.3 04)”; the “turbidity threshold (L, M, H) 1.4” value is “H (high solubility if the threshold concentration is >250 μM)”. Further, at CYP2C9, the IC50 was under 5 µM.
Regarding `CCCS(=O)(=O)Nc1ccc(F)c(C(=O)c2c[nH]c3ncc(-c4ccc(F)nc4)cc23)c1F` [P-2155, Propane-1-sulfonic acid {2,4-difluoro-3-[5-(6-fluoro-pyridin-3-yl)-1H-pyrrolo[2,3-b]pyridine-3-carbonyl]-phenyl}-amide], the IC50 in data set [1] is under 1 µM. In addition, in data set [2], the “turbidity threshold (L, M, H) 7.4” value is “L (low solubility if the threshold concentration is <31.3 04)”; the “turbidity threshold (L, M, H) 4.5” value is “L (low solubility if the threshold concentration is <31.3 04)”; the “turbidity threshold (L, M, H) 6.8” value is “L (low solubility if the threshold concentration is <31.3 04)”; the “turbidity threshold (L, M, H) 1.4” value is “L (low solubility if the threshold concentration is <31.3 04)”. For the same compound, the IC50 on CYP2C9 is over 10 µM.
Take `CCCS(=O)(=O)Nc1ccc(F)c(C(=O)c2c[nH]c3ncc(-c4ccc(OCCCN5CCCC5)nc4)cc23)c1F` [P-2235, Propane-1-sulfonic acid (2,4-difluoro-3-{5-[6-(3-pyrrolidin-1-yl-propoxy)-pyridin-3-yl]-1H-pyrrolo[2,3-b]pyridine-3-carbonyl}-phenyl)-amide]: in data set [1], the IC50 was under 0.1 µM. In data set [2], the “turbidity threshold (L, M, H) 7.4” value is given as “L (low solubility if the threshold concentration is <31.3 04)”; the “turbidity threshold (L, M, H) 4.5” value is “M (moderate solubility if the threshold concentration is 31.3 μM to 250 μM)”; the “turbidity threshold (L, M, H) 6.8” value is recorded as “L (low solubility if the threshold concentration is <31.3 04)”; the “turbidity threshold (L, M, H) 1.4” value is reported as “L (low solubility if the threshold concentration is <31.3 04)”. Also, the IC50 at CYP2C9 was over 10 µM.
For `CCCS(=O)(=O)Nc1ccc(F)c(C(=O)c2c[nH]c3ncc(-c4cn[nH]c4)cc23)c1F` [P-2174, Propane-1-sulfonic acid {2,4-difluoro-3-[5-(1H-pyrazol-4-yl)-1H-pyrrolo[2,3-b]pyridine-3-carbonyl]-phenyl}-amide], the IC50 in data set [1] was under 1 µM. Moreover, in data set [2], the “turbidity threshold (L, M, H) 7.4” value is “L (low solubility if the threshold concentration is <31.3 04)”; the “turbidity threshold (L, M, H) 4.5” value is on record as “L (low solubility if the threshold concentration is <31.3 04)”; the “turbidity threshold (L, M, H) 6.8” value is reported as “L (low solubility if the threshold concentration is <31.3 04)”; the “turbidity threshold (L, M, H) 1.4” value is reported as “L (low solubility if the threshold concentration is <31.3 04)”. Moreover, on CYP2C9, the IC50 was under 5 µM.
On to `COc1cnc2[nH]cc(C(=O)c3c(F)ccc(NS(=O)(=O)c4cc(F)ccc4F)c3F)c2c1` [P-2010, N-[2,4-Difluoro-3-(5-methoxy-1H-pyrrolo[2,3-b]pyridine-3-carbonyl)-phenyl]-2,5-difluoro-benzenesulfonamide], for which the IC50 in data set [1] is under 1 µM. Also, in data set [2], the “turbidity threshold (L, M, H) 7.4” value is reported as “M (moderate solubility if the threshold concentration is 31.3 μM to 250 μM)”; the “turbidity threshold (L, M, H) 4.5” value is listed as “L (low solubility if the threshold concentration is <31.3 04)”; the “turbidity threshold (L, M, H) 6.8” value is “M (moderate solubility if the threshold concentration is 31.3 μM to 250 μM)”; the “turbidity threshold (L, M, H) 1.4” value was “L (low solubility if the threshold concentration is <31.3 04)”. On CYP2C9, the IC50 is over 10 µM.
`CCCS(=O)(=O)Nc1ccc(F)c(C(=O)c2c[nH]c3ncc(-c4ccc(CCCOC)nc4)cc23)c1F` [P-2226, Propane-1-sulfonic acid (2,4-difluoro-3-{5-[6-(3-methoxy-propyl)-pyridin-3-yl]-1H-pyrrolo[2,3-b]pyridine-3-carbonyl}-phenyl)-amide] had an IC50 in data set [1] of under 0.1 µM. Also, in data set [2], the “turbidity threshold (L, M, H) 7.4” value is “L (low solubility if the threshold concentration is <31.3 04)”; the “turbidity threshold (L, M, H) 4.5” value was “L (low solubility if the threshold concentration is <31.3 04)”; the “turbidity threshold (L, M, H) 6.8” value is listed as “L (low solubility if the threshold concentration is <31.3 04)”; the “turbidity threshold (L, M, H) 1.4” value is listed as “H (high solubility if the threshold concentration is >250 μM)”. Also, the IC50 at CYP2C9 is under 5 µM.
